In brackets after ≈: the same amount, converted by molar mass. Read-outs that look alike come from different tables or passages of the source.
Key:
Format in all cases: cell-based
[1] = system: Staphylococcus aureus ATCC 29213; experiment: MIC, broth microdilution, S. aureus ATCC 29213
[2] = system: Escherichia coli ATCC 25922; experiment: MIC, broth microdilution, E. coli ATCC 25922; conditions: ATCC25922, Table 1, wild type strain
[3] = system: Enterococcus faecium ATCC 19434; experiment: MIC, E. faecium ATCC 19434; conditions: ATCC19434, Table 2
[4] = system: Haemophilus influenzae ATCC 49247; experiment: MIC, H. influenzae ATCC 49247; conditions: ATCC49247, Table 4
[5] = ATCC29213, Table 1, wild type strain, read-out: MIC S. aureus ATCC 29213
[6] = ATCC 29213 / MSSA, Table 2, read-out: MIC S. aureus (MSSA) ATCC 29213 CLSI control strain

MIC [1, 5]	MIC [1, 6]	MIC [2]	MIC [3]	MIC [4]	SMILES
10 to 100 µg/mL (≈ 29.7 to 297 µM)	10 to 100 µg/mL (≈ 29.7 to 297 µM)	> 100 µg/mL	> 100 µg/mL	> 100 µg/mL	Nc1ccc(-c2cc3c(cc2F)c2ocnc2c(=O)n3C2CC2)cn1 [Compound 70, 7-(6-amino-3-pyridyl)-5-cyclopropyl-8-fluoro-oxazolo[4,5-c]quinolin-4-one]
10 to 100 µg/mL (≈ 25.2 to 252 µM)	10 to 100 µg/mL (≈ 25.2 to 252 µM)	> 100 µg/mL	> 100 µg/mL	> 100 µg/mL	Cc1c(-c2cc(F)c(C(=O)O)cc2F)ccc2c3ocnc3c(=O)n(C3CC3)c12 [Compound 47, 4-{5-cyclopropyl-6-methyl-4-oxo-oxazolo[4,5-c]quinolin-7-yl}-2,5-difluorobenzoic acid]
> 100 µg/mL	> 100 µg/mL	> 100 µg/mL	> 100 µg/mL	> 100 µg/mL	CCOC(=O)c1ccc(-c2cc3c(cc2F)c2ocnc2c(=O)n3C2CC2)cc1 [Compound 61, ethyl 4-(5-cyclopropyl-8-fluoro-4-oxo-oxazolo[4,5-c]quinolin-7-yl)benzoate]
1 to 10 µg/mL (≈ 2.57 to 25.7 µM)	1 to 10 µg/mL (≈ 2.57 to 25.7 µM)	> 100 µg/mL	> 100 µg/mL	10 to 100 µg/mL (≈ 25.7 to 257 µM)	Cc1c(-c2ccc(C(=O)O)cc2)ccc2c3oc(CN)nc3c(=O)n(C3CC3)c12 [Compound 102, 4-[2-(aminomethyl)-5-cyclopropyl-6-methyl-4-oxo-oxazolo[4,5-c]quinolin-7-yl]benzoic acid]
1 to 10 µg/mL (≈ 2.68 to 26.8 µM)	1 to 10 µg/mL (≈ 2.68 to 26.8 µM)	> 100 µg/mL	10 to 100 µg/mL (≈ 26.8 to 268 µM)	10 to 100 µg/mL (≈ 26.8 to 268 µM)	CCn1c(=O)c2ncoc2c2cc(F)c(-c3cc(F)c(N)cc3F)c(C)c21 [Compound 104, 7-(4-amino-2,5-difluoro-phenyl)-5-ethyl-8-fluoro-6-methyl-oxazolo[4,5-c]quinolin-4-one]
> 100 µg/mL	> 100 µg/mL	> 100 µg/mL	> 100 µg/mL	10 to 100 µg/mL (≈ 24.2 to 242 µM)	Cc1nc2c(=O)n(C3CC3)c3cc(-c4cc(F)c(C(N)=O)cc4F)c(F)cc3c2o1 [Compound 78, 4-(5-cyclopropyl-8-fluoro-2-methyl-4-oxo-oxazolo[4,5-c]quinolin-7-yl)-2,5-difluoro-benzamide]
10 to 100 µg/mL (≈ 27.6 to 276 µM)	10 to 100 µg/mL (≈ 27.6 to 276 µM)	> 100 µg/mL	> 100 µg/mL	1 to 10 µg/mL (≈ 2.76 to 27.6 µM)	Cc1nc2c(=O)n(C3CC3)c3cc(-c4ccc(C=O)cc4)c(F)cc3c2o1 [Compound 72, 4-(5-cyclopropyl-8-fluoro-2-methyl-4-oxo-oxazolo[4,5-c]quinolin-7-yl)benzaldehyde]
10 to 100 µg/mL (≈ 26.9 to 269 µM)	10 to 100 µg/mL (≈ 26.9 to 269 µM)	10 to 100 µg/mL (≈ 26.9 to 269 µM)	> 100 µg/mL	1 to 10 µg/mL (≈ 2.69 to 26.9 µM)	Cc1nc2c(=O)n3c4c(c(N5CCN(C)CC5)c(F)cc4c2o1)OC[C@@H]3C [Compound 91]
1 to 10 µg/mL (≈ 3.16 to 31.6 µM)	1 to 10 µg/mL (≈ 3.16 to 31.6 µM)	> 100 µg/mL	10 to 100 µg/mL (≈ 31.6 to 316 µM)	10 to 100 µg/mL (≈ 31.6 to 316 µM)	Cc1c(-c2ccccc2)ccc2c3ocnc3c(=O)n(C3CC3)c12 [Compound 7, 5-cyclopropyl-6-methyl-7-phenyl-oxazolo[4,5-c]quinolin-4-one]
< 1 µg/mL	< 1 µg/mL	1 to 10 µg/mL (≈ 2.62 to 26.2 µM)	10 to 100 µg/mL (≈ 26.2 to 262 µM)	1 to 10 µg/mL (≈ 2.62 to 26.2 µM)	Cc1nc2c(=O)n(C3CC3)c3c(C)c(-c4cc(F)c(O)cc4F)ccc3c2o1 [Compound 32, 5-cyclopropyl-7-(2,5-difluoro-4-hydroxy-phenyl)-2,6-dimethyl-oxazolo[4,5-c]quinolin-4-one]
10 to 100 µg/mL (≈ 26.9 to 269 µM)	10 to 100 µg/mL (≈ 26.9 to 269 µM)	10 to 100 µg/mL (≈ 26.9 to 269 µM)	> 100 µg/mL	1 to 10 µg/mL (≈ 2.69 to 26.9 µM)	Nc1cc(-c2nc3c(cc2F)c2ocnc2c(=O)n3C2CC2)c(F)cc1F [Compound 85, 7-(5-amino-2,4-difluorophenyl)-5-cyclopropyl-8-fluoro-oxazolo[4,5-c]1,8-naphthyridin-4-one]
10 to 100 µg/mL (≈ 29.3 to 293 µM)	10 to 100 µg/mL (≈ 29.3 to 293 µM)	1 to 10 µg/mL (≈ 2.93 to 29.3 µM)	> 100 µg/mL	10 to 100 µg/mL (≈ 29.3 to 293 µM)	NC1C2CN(c3nc4c(cc3F)c3ocnc3c(=O)n4C3CC3)CC12 (stereo not drawn) [Compound 82, 7-(6-amino-3-azabicyclo[3.1.0]hexan-3-yl)-5-cyclopropyl-8-fluoro-oxazolo[4,5-c][1,8]naphthyridin-4-one]
> 100 µg/mL	10 to 100 µg/mL (≈ 25.9 to 259 µM)	> 100 µg/mL	> 100 µg/mL	10 to 100 µg/mL (≈ 25.9 to 259 µM)	Cc1nc2c(=O)n(C3CC3)c3nc(-c4cc(F)c(N)cc4F)c(F)cc3c2o1 [Compound 86, 7-(4-amino-2,5-difluorophenyl)-5-cyclopropyl-8-fluoro-2-methyl-oxazolo[4,5-c]1,8-naphthyridin-4-one]

Second part, the compound before the results:

SMILES	MIC [1, 5]	MIC [1, 6]	MIC [2]	MIC [3]	MIC [4]
CN(C)C1CCN(c2nc3c(cc2F)c2ocnc2c(=O)n3C2CC2)C1 (stereo not drawn) [Compound 83, 5-cyclopropyl-7-[3-(dimethylamino)pyrrolidin-1-yl]-8-fluoro-oxazolo[4,5-c][1,8]naphthyridin-4-one]	10 to 100 µg/mL (≈ 28 to 280 µM)	10 to 100 µg/mL (≈ 28 to 280 µM)	1 to 10 µg/mL (≈ 2.8 to 28 µM)	> 100 µg/mL	10 to 100 µg/mL (≈ 28 to 280 µM)
CCn1c(=O)c2ncoc2c2cc(F)c(-c3ccc(N)c(F)c3)c(C)c21 [Compound 107, 7-(4-amino-3-fluoro-phenyl)-5-ethyl-8-fluoro-6-methyl-oxazolo[4,5-c]quinolin-4-one]	10 to 100 µg/mL (≈ 28.1 to 281 µM)	10 to 100 µg/mL (≈ 28.1 to 281 µM)	> 100 µg/mL	> 100 µg/mL	> 100 µg/mL
CNC(=O)c1ccc(-c2cc3c(cc2F)c2ocnc2c(=O)n3C2CC2)cc1F [Compound 67, 4-(5-cyclopropyl-8-fluoro-4-oxo-oxazolo[4,5-c]quinolin-7-yl)-2-fluoro-N-methyl-benzamide]	1 to 10 µg/mL (≈ 2.53 to 25.3 µM)	1 to 10 µg/mL (≈ 2.53 to 25.3 µM)	> 100 µg/mL	> 100 µg/mL	10 to 100 µg/mL (≈ 25.3 to 253 µM)
CCn1c(=O)c2ncoc2c2cc(F)c(-c3cc(N)c(F)cc3F)c(C)c21 [Compound 105, 7-(5-amino-2,4-difluoro-phenyl)-5-ethyl-8-fluoro-6-methyl-oxazolo[4,5-c]quinolin-4-one]	10 to 100 µg/mL (≈ 26.8 to 268 µM)	10 to 100 µg/mL (≈ 26.8 to 268 µM)	10 to 100 µg/mL (≈ 26.8 to 268 µM)	10 to 100 µg/mL (≈ 26.8 to 268 µM)	10 to 100 µg/mL (≈ 26.8 to 268 µM)
Cc1nc2c(=O)n(C3CC3)c3cc(-c4ccncc4)c(F)cc3c2o1 [Compound 75, 5-cyclopropyl-8-fluoro-2-methyl-7-(4-pyridyl)oxazolo[4,5-c]quinolin-4-one]	1 to 10 µg/mL (≈ 2.98 to 29.8 µM)	1 to 10 µg/mL (≈ 2.98 to 29.8 µM)	10 to 100 µg/mL (≈ 29.8 to 298 µM)	> 100 µg/mL	1 to 10 µg/mL (≈ 2.98 to 29.8 µM)
Cc1c(-c2ccc3[nH]nnc3c2)ccc2c3ocnc3c(=O)n(C3CC3)c12 [Compound 44, 7-(1H-1,2,3-benzotriazol-5-yl)-5-cyclopropyl-6-methyl-oxazolo[4,5-c]quinolin-4-one]	> 100 µg/mL	> 100 µg/mL	> 100 µg/mL	> 100 µg/mL	> 100 µg/mL
Cc1nc2c(=O)n(C3CC3)c3nc(-c4ccc5[nH]ncc5c4)c(F)cc3c2o1 [Compound 87]	> 100 µg/mL	10 to 100 µg/mL (≈ 26.6 to 266 µM)	> 100 µg/mL	> 100 µg/mL	10 to 100 µg/mL (≈ 26.6 to 266 µM)
Cc1c(-c2cc(F)c(N)cc2F)ccc2c3oc(=O)[nH]c3c(=O)n(C3CC3)c12 [Compound 3, 7-(4-amino-2,5-difluoro-phenyl)-5-cyclopropyl-6-methyl-3H-oxazolo[4,5-c]quinoline-2,4-dione]	1 to 10 µg/mL (≈ 2.61 to 26.1 µM)	1 to 10 µg/mL (≈ 2.61 to 26.1 µM)	> 100 µg/mL	> 100 µg/mL	1 to 10 µg/mL (≈ 2.61 to 26.1 µM)
Cc1nc2c(=O)n(C3CC3)c3cc(N4CCCC(N)C4)c(F)cc3c2o1 (stereo not drawn) [Compound 51, 7-(3-aminopiperidin-1-yl)-5-cyclopropyl-8-fluoro-2-methyl-oxazolo[4,5-c]quinolin-4-one]	1 to 10 µg/mL (≈ 2.81 to 28.1 µM)	1 to 10 µg/mL (≈ 2.81 to 28.1 µM)	1 to 10 µg/mL (≈ 2.81 to 28.1 µM)	10 to 100 µg/mL (≈ 28.1 to 281 µM)	1 to 10 µg/mL (≈ 2.81 to 28.1 µM)
Cc1nc2c(=O)n(C3CC3)c3c(C)c(-c4cnc(N)nc4)ccc3c2o1 [Compound 16, 7-(2-aminopyrimidin-5-yl)-5-cyclopropyl-2,6-dimethyl-oxazolo[4,5-c]quinolin-4-one]	< 1 µg/mL	1 to 10 µg/mL (≈ 2.88 to 28.8 µM)	10 to 100 µg/mL (≈ 28.8 to 288 µM)	10 to 100 µg/mL (≈ 28.8 to 288 µM)	10 to 100 µg/mL (≈ 28.8 to 288 µM)
Cc1nc2c(=O)n(C3CC3)c3c(Cl)c(N4CCC(CN)C4)c(F)cc3c2o1 (stereo not drawn) [Compound 110, 7-[3-(aminomethyl)pyrrolidin-1-yl]-6-chloro-5-cyclopropyl-8-fluoro-2-methyl-oxazolo[4,5-c]quinolin-4-one]	< 1 µg/mL		< 1 µg/mL		
